In ChEMBL document CHEMBL5465560, “Selectivity Literature for EUbOPEN Chemogenomic Library” (2024):

What was measured:
[1] = target: T1, Serine/threonine-protein kinase TNNI3K (Homo sapiens) (UniProt Q59H18); test: Selectivity interaction (KinomeScan (DiscoverX)) EUB0000045b TNNI3K
T1 sequence (whole entry): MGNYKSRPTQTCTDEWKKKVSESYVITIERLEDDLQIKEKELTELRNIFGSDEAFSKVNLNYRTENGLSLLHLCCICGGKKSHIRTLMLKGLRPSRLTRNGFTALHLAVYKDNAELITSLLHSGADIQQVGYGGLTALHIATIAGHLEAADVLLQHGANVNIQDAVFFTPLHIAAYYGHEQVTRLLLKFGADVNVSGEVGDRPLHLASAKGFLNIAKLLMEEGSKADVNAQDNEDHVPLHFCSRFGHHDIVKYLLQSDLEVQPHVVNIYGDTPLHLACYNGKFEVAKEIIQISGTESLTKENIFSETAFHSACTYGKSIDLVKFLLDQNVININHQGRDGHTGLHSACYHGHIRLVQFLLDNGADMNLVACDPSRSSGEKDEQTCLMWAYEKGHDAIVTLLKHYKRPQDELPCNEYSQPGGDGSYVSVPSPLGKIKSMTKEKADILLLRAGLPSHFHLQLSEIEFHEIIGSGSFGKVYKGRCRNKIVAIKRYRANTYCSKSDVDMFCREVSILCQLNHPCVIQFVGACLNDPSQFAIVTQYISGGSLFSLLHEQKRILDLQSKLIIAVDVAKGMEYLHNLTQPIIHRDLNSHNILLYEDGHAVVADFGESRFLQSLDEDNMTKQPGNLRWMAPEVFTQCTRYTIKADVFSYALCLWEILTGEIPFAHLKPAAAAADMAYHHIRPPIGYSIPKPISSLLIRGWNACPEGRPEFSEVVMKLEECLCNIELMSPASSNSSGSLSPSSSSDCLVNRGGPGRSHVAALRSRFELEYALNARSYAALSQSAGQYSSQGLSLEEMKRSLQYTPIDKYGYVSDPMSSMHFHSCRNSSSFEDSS

[2] = target: T2, Dual specificity mitogen-activated protein kinase kinase 5 (Homo sapiens) (UniProt Q13163); test: Selectivity interaction (KinomeScan (DiscoverX)) EUB0000695a MAP2K5; conditions: at 100 nM
T2 sequence (whole entry): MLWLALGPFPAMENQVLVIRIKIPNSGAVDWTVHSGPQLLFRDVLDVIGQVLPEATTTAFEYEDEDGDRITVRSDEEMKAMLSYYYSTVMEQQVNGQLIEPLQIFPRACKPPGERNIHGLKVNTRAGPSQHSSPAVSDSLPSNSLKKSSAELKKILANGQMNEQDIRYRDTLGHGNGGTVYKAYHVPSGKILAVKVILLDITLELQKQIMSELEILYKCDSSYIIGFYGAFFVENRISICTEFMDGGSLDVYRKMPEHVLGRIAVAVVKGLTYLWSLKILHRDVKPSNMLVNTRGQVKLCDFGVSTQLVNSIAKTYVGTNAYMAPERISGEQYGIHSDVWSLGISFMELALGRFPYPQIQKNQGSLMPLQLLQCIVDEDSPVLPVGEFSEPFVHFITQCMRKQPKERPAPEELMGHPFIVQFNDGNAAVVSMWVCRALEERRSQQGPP

[3] = target: Serine/threonine-protein kinase 26 (Homo sapiens, UniProt Q9P289); test: Selectivity interaction (KinomeScan (DiscoverX)) EUB0000607a STK26; conditions: at 10 µM
[4] = target: T3, Serine/threonine-protein kinase RIO1 (Homo sapiens) (UniProt Q9BRS2); test: Selectivity interaction (KinomeScan (DiscoverX)) EUB0000618a RIOK1; conditions: at 10 µM
T3 sequence (whole entry): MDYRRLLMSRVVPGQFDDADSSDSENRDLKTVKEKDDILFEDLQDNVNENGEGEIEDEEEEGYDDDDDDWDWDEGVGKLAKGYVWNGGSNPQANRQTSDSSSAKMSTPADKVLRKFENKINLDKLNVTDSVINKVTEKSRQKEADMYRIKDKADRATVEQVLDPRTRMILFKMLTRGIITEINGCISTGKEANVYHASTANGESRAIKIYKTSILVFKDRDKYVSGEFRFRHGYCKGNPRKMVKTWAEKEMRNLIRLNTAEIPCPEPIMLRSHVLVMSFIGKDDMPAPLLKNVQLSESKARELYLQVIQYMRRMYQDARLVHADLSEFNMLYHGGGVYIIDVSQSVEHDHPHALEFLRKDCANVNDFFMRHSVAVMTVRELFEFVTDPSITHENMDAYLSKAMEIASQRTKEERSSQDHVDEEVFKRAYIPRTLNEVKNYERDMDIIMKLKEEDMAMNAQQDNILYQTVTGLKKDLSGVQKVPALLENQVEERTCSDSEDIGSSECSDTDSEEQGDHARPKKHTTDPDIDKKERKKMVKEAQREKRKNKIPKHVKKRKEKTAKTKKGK

[5] = target: Phosphatidylinositol 4-phosphate 3-kinase C2 domain-containing subunit alpha (Homo sapiens) (UniProt O00443); test: Selectivity interaction (Kinase panel (Invitrogen)) EUB0000639a PIK3C2A; conditions: at 200 nM
Phosphatidylinositol 4-phosphate 3-kinase C2 domain-containing subunit alpha (Homo sapiens), sequence (O00443 whole entry, the tested form may be a part): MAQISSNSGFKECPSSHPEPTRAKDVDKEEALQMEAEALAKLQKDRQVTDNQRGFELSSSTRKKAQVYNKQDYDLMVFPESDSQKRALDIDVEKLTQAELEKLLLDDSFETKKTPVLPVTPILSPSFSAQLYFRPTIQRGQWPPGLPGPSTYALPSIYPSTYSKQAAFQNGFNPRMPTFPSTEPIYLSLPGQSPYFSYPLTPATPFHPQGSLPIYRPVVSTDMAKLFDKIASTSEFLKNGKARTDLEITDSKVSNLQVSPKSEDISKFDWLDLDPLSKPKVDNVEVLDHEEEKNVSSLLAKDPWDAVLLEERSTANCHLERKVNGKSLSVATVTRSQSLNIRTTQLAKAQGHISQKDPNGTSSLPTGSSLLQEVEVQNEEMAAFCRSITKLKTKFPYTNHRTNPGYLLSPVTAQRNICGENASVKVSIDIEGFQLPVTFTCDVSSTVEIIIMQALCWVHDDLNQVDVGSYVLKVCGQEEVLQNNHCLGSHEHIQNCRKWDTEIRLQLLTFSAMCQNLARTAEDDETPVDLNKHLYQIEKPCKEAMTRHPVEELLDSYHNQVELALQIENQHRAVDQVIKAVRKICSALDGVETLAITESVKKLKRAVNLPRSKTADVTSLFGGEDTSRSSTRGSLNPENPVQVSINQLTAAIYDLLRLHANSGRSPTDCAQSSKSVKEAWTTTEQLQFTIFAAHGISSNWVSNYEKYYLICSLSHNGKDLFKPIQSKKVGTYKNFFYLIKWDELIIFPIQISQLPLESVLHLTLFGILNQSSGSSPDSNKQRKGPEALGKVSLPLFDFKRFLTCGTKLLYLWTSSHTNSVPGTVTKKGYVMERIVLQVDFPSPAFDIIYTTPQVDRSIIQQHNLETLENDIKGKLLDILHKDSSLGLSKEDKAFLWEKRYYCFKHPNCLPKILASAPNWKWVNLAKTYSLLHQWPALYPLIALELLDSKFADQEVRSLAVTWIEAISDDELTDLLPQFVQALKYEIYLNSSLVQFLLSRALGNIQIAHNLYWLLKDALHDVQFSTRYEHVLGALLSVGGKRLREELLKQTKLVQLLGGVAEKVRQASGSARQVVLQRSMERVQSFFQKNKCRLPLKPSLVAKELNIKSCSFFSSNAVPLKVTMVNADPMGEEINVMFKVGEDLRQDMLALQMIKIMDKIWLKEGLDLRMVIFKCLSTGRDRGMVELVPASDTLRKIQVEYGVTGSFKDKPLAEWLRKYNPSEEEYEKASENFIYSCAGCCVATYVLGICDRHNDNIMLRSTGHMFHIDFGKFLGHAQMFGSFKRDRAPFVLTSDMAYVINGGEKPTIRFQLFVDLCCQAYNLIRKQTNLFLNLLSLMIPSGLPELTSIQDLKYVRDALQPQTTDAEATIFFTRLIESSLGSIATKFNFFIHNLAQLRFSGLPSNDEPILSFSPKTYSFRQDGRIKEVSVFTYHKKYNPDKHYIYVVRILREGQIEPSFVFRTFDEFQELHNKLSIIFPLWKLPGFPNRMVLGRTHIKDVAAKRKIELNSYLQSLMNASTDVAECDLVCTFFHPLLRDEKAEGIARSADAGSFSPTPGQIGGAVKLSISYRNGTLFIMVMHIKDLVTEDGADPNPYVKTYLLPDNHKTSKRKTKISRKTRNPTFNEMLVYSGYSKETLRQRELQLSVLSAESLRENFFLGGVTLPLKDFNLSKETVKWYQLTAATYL

Serine/threonine-protein kinase 26, sequence (Q9P289 2-416 limits assumed): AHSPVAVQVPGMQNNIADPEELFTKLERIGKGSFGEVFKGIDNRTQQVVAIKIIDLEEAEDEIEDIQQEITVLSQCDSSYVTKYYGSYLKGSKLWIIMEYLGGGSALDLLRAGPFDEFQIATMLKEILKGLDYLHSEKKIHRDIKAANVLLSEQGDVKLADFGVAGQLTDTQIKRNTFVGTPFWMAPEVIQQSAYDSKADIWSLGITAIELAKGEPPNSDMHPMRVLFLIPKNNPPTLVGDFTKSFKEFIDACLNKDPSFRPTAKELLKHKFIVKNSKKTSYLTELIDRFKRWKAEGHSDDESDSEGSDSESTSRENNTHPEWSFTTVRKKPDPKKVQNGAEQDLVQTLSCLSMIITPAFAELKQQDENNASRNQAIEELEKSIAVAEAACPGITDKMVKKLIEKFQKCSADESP

## C=CC(=O)Nc1cc(-n2c(=O)ccc3cnc4ccc(-c5ccc(NS(C)(=O)=O)cc5)cc4c32)ccc1C
[1]; at 1 µM
  % of control: 100%
[1]; at 10 µM
  % of control: 77%

## Cc1cc(F)c(C(=O)Nc2cccc(-c3nncn3C(C)C)n2)cc1-n1cnc(C2CC2)c1
[2]
  % of control: 94%

## CNC(=O)Nc1ccc(-c2nc(N3CC4CCC(C3)O4)c3cnn(C4CCC5(CC4)OCCO5)c3n2)cc1
[3]
  % of control: 70%

## O[C@H]1CC[C@H](Nc2ncc3nc(Nc4c(F)cc(F)cc4F)n([C@H]4CCOC4)c3n2)CC1
[4]
  % of control: 100%

## CC[C@@H]1[C@H](F)C(=O)N[C@@H]1COc1nccc2cc(C(N)=O)c(OC)cc12 [ZIMLOVISERTIB]
[5]
  % of inhibition: -2.62%
